Reference: patent US9133207B2, “Tetrandrine derivatives with substituted 5-carbon, preparation method and use thereof” (Hangzhou Bensheng Pharmaceutical Co., Ltd., priority 2011, dated 2015)
In brackets after ≈: the same amount, converted by molar mass.

Key:
[1] = system: Kasumi-1 (acute myeloid leukemia M2 type, AML-M2); test: Leukemia cell growth inhibition, MTT, 72 h (Example 5); format: cell-based, human; details: Homo sapiens, Kasumi 1
Outline: (§1)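 An MTT read-out of viable cell concentration follows 72 h incubation (37° C, 5% CO2) of 6000 cells/well in 10% FBS-supplemented 1640 medium with the 5-substituted derivatives at varying concentrations.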

[2] = system: H9 (acute lymphoblastic leukemia, ALL); test: as above; format: cell-based, human; details: Homo sapiens; 72 h, MTT
Outline: as §1

[3] = system: NB4 (acute promyelocytic leukemia, AML); test: as above; format: cell-based, human; details: Homo sapiens; 72 h, MTT
Outline: as §1

[4] = system: K562/adr (drug-resistant, chronic myeloid leukemia, CML); test: as above; format: cell-based, human; details: Homo sapiens, K562/Adr; 72 h, MTT
Outline: as §1

[5] = system: Jurkat (acute lymphoblastic leukemia, ALL); test: as above; format: cell-based, human; details: Homo sapiens, Jurkat; 72 h, MTT
Outline: as §1

[6] = system: Hep-2 (laryngeal carcinoma); test: Solid tumor cell growth inhibition, MTT, 72 h (Example 7); format: cell-based, human; details: Homo sapiens; 72 h, MTT, Hep 2
Outline: (§2)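 4000 cells/well; DMEM high glucose + 10% FBS; 37 °C, 5% CO2; 24 h pre-culture; tetrandrine derivatives, varied conc., 72 h; MTT readout; viability % vs untreated control = 100%.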

PC-3 (prostate cancer) = test: as above; format: cell-based, human; details: Homo sapiens; 72 h, MTT, PC-3
Outline: as §2

[7] = system: CaES-17 (esophageal cancer cell); test: as above; format: cell-based, human; details: Homo sapiens, CaEs17; 72 h, MTT, CAES-17
Outline: as §2

MG63 (osteosarcoma) = test: as above; format: cell-based, human; details: Homo sapiens; 72 h, MTT, MG-63
Outline: as §2

[8] = system: PANC-1 (pancreatic cancer); test: as above; format: cell-based, human; details: Homo sapiens; 72 h, MTT, PANC-1
Outline: as §2

[9] = system: RPMI8226 (multiple myeloma); test: Multiple myeloma cell growth inhibition, MTT, 72 h (Example 6); format: cell-based, human; details: Homo sapiens, RPMI-8226; 72 h, MTT, RPMI8226
Outline: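 Viability was read by MTT after 72 h of compound exposure at 37 °C, 5% CO2. Each well held 6000 RPMI8226 cells in 1640 medium containing 10% fetal bovine serum, with derivatives added at various concentrations.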

A549 (human lung cancer) = test: Solid tumor cell growth inhibition, MTT, 72 h (Example 7); format: cell-based; details: Homo sapiens; 72 h, MTT, A549
Outline: as §2

[10] = system: SK-OV-3 (ovarian cancer cell); test: as above; format: cell-based; details: Homo sapiens
Outline: as §2

[11] = system: RKO (human colon adenocarcinoma cell); test: as above; format: cell-based; details: Homo sapiens; 72 h, MTT, RKO
Outline: as §2

[12] = system: Huh7 (human liver cancer cell); test: as above; format: cell-based; details: Homo sapiens; 72 h, MTT, Huh-7
Outline: as §2

[13] = system: Hela (human cervical cancer cell); test: as above; format: cell-based; details: Homo sapiens; 72 h, MTT, Hela
Outline: as §2

[14] = system: MGC 803 (human gastric cancer cell); test: as above; format: cell-based; details: Homo sapiens
Outline: as §2

[15] = system: U87 MG (malignant glioma cell); test: as above; format: cell-based; details: Homo sapiens, U-87 MG
Outline: as §2

[16] = system: Becap37 (human breast cancer cell); test: as above; format: cell-based; details: Homo sapiens; 72 h, MTT, Becap-37
Outline: as §2

[17] = system: CNE (nasopharyngeal carcinoma cell); test: as above; format: cell-based; details: Homo sapiens
Outline: as §2

| IC50 [1] | IC90 [1] | IC50 [2] | IC90 [2] | IC50 [3] | IC90 [3] | IC50 [4] | IC90 [4] | IC50 [5] | IC90 [5] | IC50 [6] | IC90 [6] | IC50 (PC-3 (prostate cancer)) | IC90 (PC-3 (prostate cancer)) | IC50 [7] | IC90 [7] | IC50 (MG63 (osteosarcoma)) | IC90 (MG63 (osteosarcoma)) | IC50 [8] | IC90 [8] | SMILES | also measured |
| --- | --- | --- | --- | --- | --- | --- | --- | --- | --- | --- | --- | --- | --- | --- | --- | --- | --- | --- | --- | --- | --- |
| 0.96 µg/mL (≈ 1.44 µM) | 2.37 µg/mL (≈ 3.56 µM) | 0.88 µg/mL (≈ 1.32 µM) | 1.35 µg/mL (≈ 2.03 µM) | 1.2 µg/mL (≈ 1.8 µM) | 1.8 µg/mL (≈ 2.7 µM) | 0.89 µg/mL (≈ 1.34 µM) | 2.14 µg/mL (≈ 3.21 µM) | 1.41 µg/mL (≈ 2.12 µM) | 3.98 µg/mL (≈ 5.98 µM) | 3.62 µg/mL (≈ 5.44 µM) | 6.57 µg/mL (≈ 9.87 µM) | 3.6 µg/mL (≈ 5.41 µM) | 5.8 µg/mL (≈ 8.71 µM) | 2.5 µg/mL (≈ 3.75 µM) | 6.18 µg/mL (≈ 9.28 µM) | 1.4 µg/mL (≈ 2.1 µM) | 1.9 µg/mL (≈ 2.85 µM) | 1.63 µg/mL (≈ 2.45 µM) | 5.16 µg/mL (≈ 7.75 µM) | CNCc1c2c3c(c(OC)c1OC)Oc1cc4c(cc1OC)CCN(C)[C@H]4Cc1ccc(cc1)Oc1cc(ccc1OC)C[C@@H]3N(C)CC2 [BS-TE-326] | IC50 [9]: 0.27 µg/mL (≈ 0.406 µM); IC90 [9]: 0.64 µg/mL (≈ 0.961 µM); IC50 (A549 (human lung cancer)): 1.8 µg/mL (≈ 2.7 µM); IC90 (A549 (human lung cancer)): 4.9 µg/mL (≈ 7.36 µM); IC50 [10]: 1.91 µg/mL (≈ 2.87 µM); IC90 [10]: 5.21 µg/mL (≈ 7.82 µM); IC50 [11]: 0.87 µg/mL (≈ 1.31 µM); IC90 [11]: 2.22 µg/mL (≈ 3.33 µM); IC50 [12]: 1.15 µg/mL (≈ 1.73 µM); IC90 [12]: 1.76 µg/mL (≈ 2.64 µM); IC50 [13]: 1.9 µg/mL (≈ 2.85 µM); IC90 [13]: 3.01 µg/mL (≈ 4.52 µM); IC50 [14]: 1.46 µg/mL (≈ 2.19 µM); IC90 [14]: 5.38 µg/mL (≈ 8.08 µM); IC50 [15]: 0.75 µg/mL (≈ 1.13 µM); IC90 [15]: 2.4 µg/mL (≈ 3.6 µM); IC50 [16]: 1.3 µg/mL (≈ 1.95 µM); IC90 [16]: 2 µg/mL (≈ 3 µM); IC50 [17]: 3.2 µg/mL (≈ 4.81 µM); IC90 [17]: 4.95 µg/mL (≈ 7.43 µM) |
| 0.84 µg/mL (≈ 1.14 µM) | 3.76 µg/mL (≈ 5.1 µM) | 1.54 µg/mL (≈ 2.09 µM) | 3.15 µg/mL (≈ 4.27 µM) | 1.8 µg/mL (≈ 2.44 µM) | 4.4 µg/mL (≈ 5.96 µM) | 1.46 µg/mL (≈ 1.98 µM) | 5.12 µg/mL (≈ 6.94 µM) | 2.09 µg/mL (≈ 2.83 µM) | 8 µg/mL (≈ 10.8 µM) | 9.63 µg/mL (≈ 13 µM) | 15.9 µg/mL (≈ 21.5 µM) | 3.07 µg/mL (≈ 4.16 µM) | 4.98 µg/mL (≈ 6.75 µM) | 3.13 µg/mL (≈ 4.24 µM) | 12.2 µg/mL (≈ 16.5 µM) | 2.1 µg/mL (≈ 2.85 µM) | 3.9 µg/mL (≈ 5.28 µM) | 2.99 µg/mL (≈ 4.05 µM) | 7.15 µg/mL (≈ 9.69 µM) | COc1ccc2cc1Oc1ccc(cc1)C[C@H]1c3cc(c(OC)cc3CCN1C)Oc1c(OC)c(OC)c(CN3CCSCC3)c3c1[C@H](C2)N(C)CC3 [BS-TE-328] | IC50 [9]: 0.15 µg/mL (≈ 0.203 µM); IC90 [9]: 0.96 µg/mL (≈ 1.3 µM); IC50 (A549 (human lung cancer)): 3.7 µg/mL (≈ 5.01 µM); IC90 (A549 (human lung cancer)): 9.9 µg/mL (≈ 13.4 µM); IC50 [10]: 6.8 µg/mL (≈ 9.21 µM); IC90 [10]: > 16 µg/mL; IC50 [11]: 1.76 µg/mL (≈ 2.38 µM); IC90 [11]: 3 µg/mL (≈ 4.07 µM); IC50 [12]: 1.52 µg/mL (≈ 2.06 µM); IC90 [12]: 3.7 µg/mL (≈ 5.01 µM); IC50 [13]: 2.49 µg/mL (≈ 3.37 µM); IC90 [13]: 4.91 µg/mL (≈ 6.65 µM); IC50 [14]: 1.68 µg/mL (≈ 2.28 µM); IC90 [14]: 4 µg/mL (≈ 5.42 µM); IC50 [15]: 1.44 µg/mL (≈ 1.95 µM); IC90 [15]: 5.39 µg/mL (≈ 7.3 µM); IC50 [16]: 2 µg/mL (≈ 2.71 µM); IC90 [16]: 4 µg/mL (≈ 5.42 µM); IC50 [17]: 6.02 µg/mL (≈ 8.16 µM); IC90 [17]: > 16 µg/mL |
| 0.75 µg/mL (≈ 1 µM) | 3.1 µg/mL (≈ 4.14 µM) | 1.11 µg/mL (≈ 1.48 µM) | 2.32 µg/mL (≈ 3.1 µM) | 0.6 µg/mL (≈ 0.801 µM) | 1.6 µg/mL (≈ 2.14 µM) | 0.55 µg/mL (≈ 0.734 µM) | 2.15 µg/mL (≈ 2.87 µM) | 0.8 µg/mL (≈ 1.07 µM) | 4.05 µg/mL (≈ 5.41 µM) | 1.86 µg/mL (≈ 2.48 µM) | 7.19 µg/mL (≈ 9.6 µM) | 1.79 µg/mL (≈ 2.39 µM) | 2.4 µg/mL (≈ 3.2 µM) | 2.21 µg/mL (≈ 2.95 µM) | 12.4 µg/mL (≈ 16.5 µM) | 0.9 µg/mL (≈ 1.2 µM) | 1.9 µg/mL (≈ 2.54 µM) | 1.92 µg/mL (≈ 2.56 µM) | 6.84 µg/mL (≈ 9.13 µM) | CCN1CCN(Cc2c3c4c(c(OC)c2OC)Oc2cc5c(cc2OC)CCN(C)[C@H]5Cc2ccc(cc2)Oc2cc(ccc2OC)C[C@@H]4N(C)CC3)CC1 [BS-TE-342] | IC50 [9]: 0.006 µg/mL (≈ 0.00801 µM); IC90 [9]: 0.45 µg/mL (≈ 0.601 µM); IC50 (A549 (human lung cancer)): 3.2 µg/mL (≈ 4.27 µM); IC90 (A549 (human lung cancer)): 16 µg/mL (≈ 21.4 µM); IC50 [10]: 2 µg/mL (≈ 2.67 µM); IC90 [10]: > 16 µg/mL; IC50 [11]: 0.69 µg/mL (≈ 0.921 µM); IC90 [11]: 1.75 µg/mL (≈ 2.34 µM); IC50 [12]: 1.31 µg/mL (≈ 1.75 µM); IC90 [12]: 2.46 µg/mL (≈ 3.28 µM); IC50 [13]: 1.69 µg/mL (≈ 2.26 µM); IC90 [13]: 4.1 µg/mL (≈ 5.47 µM); IC50 [14]: 1.38 µg/mL (≈ 1.84 µM); IC90 [14]: 6.55 µg/mL (≈ 8.75 µM); IC50 [15]: 0.3 µg/mL (≈ 0.401 µM); IC90 [15]: 1.16 µg/mL (≈ 1.55 µM); IC50 [16]: 1.1 µg/mL (≈ 1.47 µM); IC90 [16]: 4.5 µg/mL (≈ 6.01 µM); IC50 [17]: 1.6 µg/mL (≈ 2.14 µM); IC90 [17]: 3.7 µg/mL (≈ 4.94 µM) |
